Drawing on patent publication US4985428A, “Isoxazoles with nootropic activity” (Zambon Group S.p.A., priority 1987, dated 1991), this text covers ED50 for 10 compounds.

The test system of the experiment is electroshock (ECS) amnesia in rat. Kind of experiment: electroshock (ECS) amnesia test in rat. The conditions noted are these: male rats, dose improving retention time by 50% of Δt vs ECS control. It counts as in vivo. Here is the method:
The compounds of formula I are active on central nervous system and they can be used in pharmaceutical field as nootropics. By the electroshock (ECS) amnesia test, described in example 8, in rat the pharmacological activity of the compounds object of the present invention was evaluated in comparison with the activity of Piracetam and Aniracetam. Pharmacodynamic evaluation: electroshock (ECS) amnesia test in rat Male rats weighing 130-150 g and fasting for at least 12 hours before the beginning of the test were used. The test consisted in two experiments with a resting interval of 24 hours between them. First experiment: training session The animals were trained to associate the passage from a light partition to a dark one, in a suitable box, with a noxious stimulation that is an electric stimulation through an electrified grid (foot-shock: 1 mA for 10 seconds). Second experiment: retention session The ability of the animals to remember was evaluated as the time utilized to repeat the passage through the partitions (retention time). Evaluation of the retention time in control groups of animals The test was carried out first on two groups of animals as control. […] Fixing 60 seconds as time-limit for performing the second experiment, the average time (retention time) utilized for the passage was 54 seconds for the control and 32 seconds for the ECS control. Evaluation of the retention time in groups of treated animals Groups of 20 rats underwent the training session, the treatment for inducing amnesia and the retention session after administration of the compounds object of the present invention and of the reference compounds, Piracetam and Aniracetam. The administration was carried out 30 minutes before the training session in case of intraperitoneal administration (i.p.) and 60 minutes before in case of administration by oral route. At least three doses each compound and each administration route were tested. The difference between the retention time of the control and the retention time of the ECS control was considered as reference (Δt) and it was fixed, as percentage, equal to 100. In the groups of animals which were treated and underwent ECS the activity against amnesia of the compounds object of the present invention was expressed as ED50 that is as the dose of compound able to give an improvement of the retention time equal to 50% of the reference interval (Δt) in comparison with the ECS control.

The mark [1] stands for this setting: ip, intraperitoneal, 30 minutes before training session, read-out: ED50 i.p.
Setting [2] is: oral route, 60 minutes before training session, read-out: ED50 os.

Each structure is given as a SMILES string. Like-named read-outs stand apart in the source and are kept apart here.

A word on the ED50: it is the dose that gives a 50% effect, or the effect in half of the subjects. As to `Cc1cc(C(=O)NCCCC(=O)O)on1` [Compound 4, N-(3-methyl-5-isoxazolecarbonyl)-4-aminobutyric acid], the median effective dose (ED50) by setting is: under setting [1], 202 µmol/kg; under setting [2], 383 µmol/kg.
Consider `COc1cc(C(=O)NCCCC(=O)O)on1` [Compound 3, N-(3-methoxy-5-isoxazolecarbonyl)-4-aminobutyric acid], for which the 50% effective dose (ED50) under setting [1] amounted to 276 µmol/kg and the median effective dose (ED50) under setting [2] turned out to be 868 µmol/kg.
In the case of `O=C(O)CCCNC(=O)CCCNC(=O)c1cc(Br)no1` [Compound 19, N-[N-(3-bromo-5-isoxazolecarbonyl)-4-aminobutyroyl]-4-aminobutyric acid], under setting [2], the median effective dose (ED50) is 261 µmol/kg.
With `CCOC(=O)CNC(=O)CCCNC(=O)c1cc(Br)no1` [Compound 12, Ethyl N-[N-(3-bromo-5-isoxazolecarbonyl)-4-aminobutyroyl]glicinate], the ED50 was found to be 171 µmol/kg under setting [1] and 1000 µmol/kg under setting [2].
For `O=C(O)CCCNC(=O)c1cc(Br)no1` [Compound 1, N-(3-bromo-5-isoxazolecarbonyl)-4-aminobutyric acid], in that order: 102 µmol/kg and 290 µmol/kg.
In the case of `NC(=O)CN1CCCC1=O` [Piracetam, 2-pyrrolidinoneacetamide, reference compound], the 50% effective dose (ED50) worked out at 329 µmol/kg under setting [1] and 1550 µmol/kg under setting [2].
`O=C(O)CCCNC(=O)c1cc(Cl)no1` [Compound 2, N-(3-chloro-5-isoxazolecarbonyl)-4-aminobutyric acid]: the ED50 by setting is: under setting [1], 160 µmol/kg; under setting [2], 260 µmol/kg.
On to `COc1ccc(C(=O)N2CCCC2=O)cc1` [Aniracetam, 1-(4-methoxy-benzoyl)-2-pyrrolidinone, reference compound], for which the ED50 is, setting by setting: under setting [1], 353 µmol/kg; under setting [2], 1110 µmol/kg.
In the case of `O=C(NCCCC(=O)N1CCCC1)c1cc(Br)no1` [Compound 8, N-[4-oxo-4-(1-pyrrolidinyl)butyl]-3-bromo-5-isoxazolecarboxamide], the ED50 under setting [1] came out at 25 µmol/kg and the ED50 under setting [2] worked out at 80 µmol/kg.
In the case of `O=C(NCCCC(=O)N1CCCC1=O)c1cc(Br)no1` [Compound 21, 1-[N-(3-bromo-5-isoxazolecarbonyl)-4-aminobutyroyl]-2-pyrrolidinone], the 50% effective dose (ED50) under setting [2] was determined as 254 µmol/kg.
